The values below come from the Biogen ADME set (Fang et al. 2023).

By aqueous solubility is commonly meant the concentration that dissolves in the medium under given conditions.

Molecules are shown by their SMILES. Values after ≈ are worked out from the molar mass of the structure shown.

The conditions of this data set: for aqueous solubility: pH 6.8.

With `COc1cccc(OCCCn2cncc2-c2cc3c(cc2OC)OCCCO3)c1`, the MDR1-MDCK efflux ratio was determined as 5.28; the intrinsic clearance, human liver microsomes turned out to be 16.7 mL/min/kg; the intrinsic clearance, rat liver microsomes amounted to 106 mL/min/kg; the aqueous solubility came to 95.5 µg/mL (≈ 233 µM).
`O=C(NCCN1CCC(n2c(=O)[nH]c3cc(Cl)ccc32)CC1)c1ccc(F)cc1` yielded an intrinsic clearance, human liver microsomes of 60.9 mL/min/kg and an intrinsic clearance, rat liver microsomes of 373 mL/min/kg.
Take `Cc1cc(NC2CCCC2)nc(C2CCNCC2)n1`: the MDR1-MDCK efflux ratio came to 66.7; the intrinsic clearance, human liver microsomes was not above 4.74 mL/min/kg; the intrinsic clearance, rat liver microsomes came to 24.8 mL/min/kg; the aqueous solubility turned out to be 71.4 µg/mL (≈ 274 µM).
On to `COc1nn(C)cc1C(=O)Nc1cccc2cnccc12`, for which the fraction unbound, human plasma is 0.32; the fraction unbound, rat plasma amounted to 0.389; the intrinsic clearance, human liver microsomes amounted to 99.7 mL/min/kg; the intrinsic clearance, rat liver microsomes was 180 mL/min/kg. This compound returned an aqueous solubility of 40.5 µg/mL (≈ 143 µM).
Turning to `CC1(C)CC(=O)c2c(C(F)(F)F)nn(-c3ccc(C(N)=O)c(N[C@H]4CC[C@@H](O)CC4)c3)c2C1`, the MDR1-MDCK efflux ratio was 109; the intrinsic clearance, human liver microsomes stood at 47.7 mL/min/kg; the intrinsic clearance, rat liver microsomes was determined as 108 mL/min/kg.
`N#Cc1nncn1CC(=O)Nc1ccc2ccccc2c1` gave an aqueous solubility of 22.8 µg/mL (≈ 82.1 µM).
Consider `Cc1cc(C)nc(N(C)CC(=O)NC2CC2)n1`, for which the MDR1-MDCK efflux ratio is 0.884; the intrinsic clearance, human liver microsomes is not above 4.74 mL/min/kg; the intrinsic clearance, rat liver microsomes is 23.1 mL/min/kg; the aqueous solubility turned out to be 34.9 µg/mL (≈ 149 µM).
`CN1CCC(C(=O)N2CCC(c3cc(C(F)(F)F)c4c(n3)CCNC4=O)CC2)CC1`: the MDR1-MDCK efflux ratio amounted to 5.17; the intrinsic clearance, human liver microsomes was not above 4.74 mL/min/kg; the intrinsic clearance, rat liver microsomes stood at 11 mL/min/kg; the aqueous solubility is 52.3 µg/mL (≈ 123 µM).
Regarding `c1ccc(Nc2nc(N3CCOCC3)nc(N3CCOCC3)n2)cc1`, the MDR1-MDCK efflux ratio is 0.502; the intrinsic clearance, human liver microsomes was 22.8 mL/min/kg; the intrinsic clearance, rat liver microsomes stood at 48.3 mL/min/kg.
For the compound `O=C1CCCc2nc(Nc3nc(-c4ccccc4)c4ccccc4n3)ncc21`, the aqueous solubility came out at 0.16 µg/mL (≈ 0.435 µM).
As to `O=C(Cc1c(F)cccc1Cl)Nc1cccc2cnccc12`, the MDR1-MDCK efflux ratio amounted to 0.889; the intrinsic clearance, human liver microsomes is 62.6 mL/min/kg; the intrinsic clearance, rat liver microsomes stood at 288 mL/min/kg; the aqueous solubility was 2.09 µg/mL (≈ 6.64 µM).
Compound `CCC1=Nc2c(cnn2-c2cccc(Cl)c2)C2=NCCCN12` came in with an aqueous solubility of 53.2 µg/mL (≈ 170 µM).
On to `Cc1ccc(-c2ccc3c(ccc4sc5c(c43)NC[C@@H](C)NC5=O)n2)cn1`, for which the MDR1-MDCK efflux ratio worked out at 5.49 and the aqueous solubility is 0.2 µg/mL (≈ 0.534 µM).
With `COc1ccccc1N1CCN(CCNC(=O)c2ccc(F)cc2)CC1`, the intrinsic clearance, human liver microsomes worked out at 22 mL/min/kg and the intrinsic clearance, rat liver microsomes came to 356 mL/min/kg.
For the compound `Cc1cc(Br)cn(Cc2ccc(C#N)cc2F)c1=O`, the MDR1-MDCK efflux ratio was found to be 0.644; the intrinsic clearance, human liver microsomes is not above 4.74 mL/min/kg; the intrinsic clearance, rat liver microsomes came out at 102 mL/min/kg.
For `NC(=O)C1(Cc2ccc(-c3ccncc3)cc2)CCN(C(=O)Cc2cccc(F)c2)CC1`, the fraction unbound, human plasma was determined as 0.102; the fraction unbound, rat plasma turned out to be 0.114; the aqueous solubility worked out at 63 µg/mL (≈ 146 µM).
Turning to `Cc1oc2cc(OCC(=O)Nc3nccs3)ccc2c(=O)c1Oc1ccc(F)cc1`, the MDR1-MDCK efflux ratio amounted to 0.97 and the aqueous solubility stood at 0.5 µg/mL (≈ 1.17 µM).
As to `COc1cccc(-c2ccc(C(=O)N(C)Cc3c(C)nn(C(C)C)c3C)o2)c1`, the MDR1-MDCK efflux ratio was found to be 1.47; the intrinsic clearance, human liver microsomes was 264 mL/min/kg; the intrinsic clearance, rat liver microsomes came to 1960 mL/min/kg; the aqueous solubility was determined as 47 µg/mL (≈ 123 µM).
In turn, `Cc1cc(NC(=O)c2ccc(Cl)cc2F)no1` showed an aqueous solubility of 7 µg/mL (≈ 27.5 µM).
`COC(c1ccccc1)(c1ccccc1)[C@H](Oc1nc(C)cc(C)n1)C(=O)O`: the MDR1-MDCK efflux ratio amounted to 38.3; the intrinsic clearance, human liver microsomes was not above 4.74 mL/min/kg; the intrinsic clearance, rat liver microsomes is not above 10.7 mL/min/kg.
Consider `Cc1ccc(-n2cc[nH]c(=O)c2=O)cc1`, for which the MDR1-MDCK efflux ratio stood at 1.05; the intrinsic clearance, human liver microsomes was not above 4.74 mL/min/kg; the intrinsic clearance, rat liver microsomes was not above 10.7 mL/min/kg; the aqueous solubility worked out at 42.9 µg/mL (≈ 212 µM).
The like results for `Cn1cc(NC(=O)c2ccc(OCC3CCOCC3)nc2)cn1` were, in that order, 2.95, not above 4.74 mL/min/kg, 41.2 mL/min/kg and 50.1 µg/mL (≈ 158 µM).
With `C#CCN1CCC(c2nc(Cc3noc(C)n3)no2)CC1`, the MDR1-MDCK efflux ratio was determined as 0.732; the intrinsic clearance, human liver microsomes was not above 4.74 mL/min/kg; the intrinsic clearance, rat liver microsomes was determined as 12.8 mL/min/kg; the aqueous solubility was 49.5 µg/mL (≈ 172 µM).
Turning to `Cc1cc(C)n(-c2ccc(CNC(=O)c3ccc4c(c3)CCO4)cn2)n1`, the MDR1-MDCK efflux ratio was 0.769; the intrinsic clearance, human liver microsomes came out at 11.4 mL/min/kg; the intrinsic clearance, rat liver microsomes worked out at 106 mL/min/kg; the aqueous solubility was 3.86 µg/mL (≈ 11.1 µM).
As for `COC(=O)N1CC(NCc2c(C)nn(C(C)(C)C)c2C)C1`, the MDR1-MDCK efflux ratio came out at 1.79; the intrinsic clearance, human liver microsomes is not above 4.74 mL/min/kg; the intrinsic clearance, rat liver microsomes is 61.2 mL/min/kg.
Regarding `Cc1cccc(NC(=O)c2ccccc2-c2ccccc2)n1`, the MDR1-MDCK efflux ratio turned out to be 0.551; the intrinsic clearance, human liver microsomes turned out to be 64.2 mL/min/kg; the intrinsic clearance, rat liver microsomes was 686 mL/min/kg; the aqueous solubility came out at 33.1 µg/mL (≈ 115 µM).
For the compound `Cc1ccc(NC(=O)Cc2c[nH]c3ccccc23)cc1`, the aqueous solubility is 5.6 µg/mL (≈ 21.2 µM).
On to `CCN1CCN(Cc2ccc(Nc3ncc(F)c(-c4cc(F)c5nc(C)n(C(C)C)c5c4)n3)nc2)CC1.CS(=O)(=O)O`, for which the MDR1-MDCK efflux ratio amounted to 61.4; the intrinsic clearance, human liver microsomes was determined as 129 mL/min/kg; the intrinsic clearance, rat liver microsomes stood at 107 mL/min/kg; the aqueous solubility is 48.2 µg/mL.
For `Cn1c(=O)n(C)c2cc(CN3CCC(c4ccc(Cc5ccccc5F)cn4)CC3)ccc21`, the MDR1-MDCK efflux ratio was 6.24; the intrinsic clearance, human liver microsomes was found to be 84.8 mL/min/kg; the intrinsic clearance, rat liver microsomes turned out to be 108 mL/min/kg; the aqueous solubility worked out at 56.6 µg/mL (≈ 127 µM).
As to `COc1ccc(OCC(=O)Nc2cccc(Cl)c2N2CCN(C(C)=O)CC2)cc1`, the MDR1-MDCK efflux ratio was 1.09; the fraction unbound, human plasma is 0.0502; the intrinsic clearance, human liver microsomes was 181 mL/min/kg; the intrinsic clearance, rat liver microsomes came out at 3350 mL/min/kg. For the same compound, the aqueous solubility came to 4.7 µg/mL (≈ 11.2 µM).
Turning to `CCCC1(CNC(=O)Cn2ccc(=O)cc2)CCC1`, the MDR1-MDCK efflux ratio amounted to 14.3; the intrinsic clearance, human liver microsomes is not above 4.74 mL/min/kg; the intrinsic clearance, rat liver microsomes is 14.6 mL/min/kg.
Consider `COc1cccc(C(=O)C[n+]2cc(-c3ccc(F)cc3)n(C)c2N)c1`, for which the MDR1-MDCK efflux ratio came to 26.3; the intrinsic clearance, human liver microsomes is not above 4.74 mL/min/kg; the intrinsic clearance, rat liver microsomes turned out to be 45.2 mL/min/kg; the aqueous solubility amounted to 74.1 µg/mL.
Regarding `O=S(=O)(Nc1ccc(C(O)(C(F)(F)F)C(F)(F)F)cc1)c1ccccc1`, the intrinsic clearance, human liver microsomes came out at 7.61 mL/min/kg and the intrinsic clearance, rat liver microsomes turned out to be 17.1 mL/min/kg.
Regarding `Cc1ccc(-c2nc(-c3ccncc3)n[nH]2)cc1`, the intrinsic clearance, human liver microsomes was 26.9 mL/min/kg; the intrinsic clearance, rat liver microsomes came out at 269 mL/min/kg; the aqueous solubility is 20 µg/mL (≈ 84.7 µM).
